Test results from patent US8906925B2, “Pyrido[4,3-B]indoles containing rigid moieties” (Medivation Technologies, Inc., priority 2008, dated 2014).

How the values were obtained:
histamine receptor H1 = histamine receptor H1 (Homo sapiens, UniProt P35367); assay: Histamine H1 radioligand binding ([3H]Pyrilamine); conditions: read-out: Histamine Binding (1 μM) H1, percent inhibition of specific binding, 1 μM
Method: To evaluate in radioligand binding assays the activity of compounds of the invention, human recombinant histamine H1 receptor expressed in Chinese hamster ovary (CHO) cells (De Backer, M. D. et al., Biochem. Biophys. Res. Comm. 197(3):1601, 1993) in a modified Tris-HCl buffer (50 mM Tris-HCl, pH 7.4, 2 mM MgCl2, 100 mM NaCl, 250 mM Sucrose) was used. Compounds of the invention were incubated with 1.2 nM [^3H]Pyrilamine for 180 min. at 25° C. Non-specific binding was estimated in the presence of 1 μM pyrilamine. Receptor proteins were filtered and washed, the filters were then counted to determine [^3H]Pyrilamine specifically bound. Compounds were screened at 1 μM or lower, using 1% DMSO as vehicle. Biochemical assay results are presented as the percent inhibition of specific binding in Table 8.

[1] = molecular target: human dopamine D2L receptor (Homo sapiens, UniProt P14416); assay: Dopamine D2L radioligand binding ([3H]Spiperone); conditions: compound at 1 μM; […] [3H]Spiperone; read-out: Inhibition of ligand binding, Dopamine D2L (percent inhibition of specific binding)
Chain of human dopamine D2L receptor (P14416 whole entry): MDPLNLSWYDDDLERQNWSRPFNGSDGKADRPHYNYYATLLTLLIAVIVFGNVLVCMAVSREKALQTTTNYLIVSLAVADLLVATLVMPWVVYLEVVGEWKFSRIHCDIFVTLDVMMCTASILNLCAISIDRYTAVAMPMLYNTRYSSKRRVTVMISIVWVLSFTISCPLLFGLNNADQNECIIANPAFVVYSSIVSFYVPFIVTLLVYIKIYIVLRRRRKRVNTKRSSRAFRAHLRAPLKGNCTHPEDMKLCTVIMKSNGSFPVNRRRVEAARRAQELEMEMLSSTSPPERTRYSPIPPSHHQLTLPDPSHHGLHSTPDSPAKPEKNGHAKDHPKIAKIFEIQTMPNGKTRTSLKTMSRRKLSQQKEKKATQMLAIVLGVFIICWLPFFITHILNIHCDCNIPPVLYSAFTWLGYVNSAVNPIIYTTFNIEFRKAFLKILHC
Text: Non-specific binding was estimated in the presence of […] Haloperidol. Receptor proteins were filtered and washed, the filters were then counted to determine [^3H]Spiperone specifically bound. […] Biochemical assay results are presented as the percent inhibition of specific binding in Table 9.

Chain of histamine receptor H1 (P35367 whole entry): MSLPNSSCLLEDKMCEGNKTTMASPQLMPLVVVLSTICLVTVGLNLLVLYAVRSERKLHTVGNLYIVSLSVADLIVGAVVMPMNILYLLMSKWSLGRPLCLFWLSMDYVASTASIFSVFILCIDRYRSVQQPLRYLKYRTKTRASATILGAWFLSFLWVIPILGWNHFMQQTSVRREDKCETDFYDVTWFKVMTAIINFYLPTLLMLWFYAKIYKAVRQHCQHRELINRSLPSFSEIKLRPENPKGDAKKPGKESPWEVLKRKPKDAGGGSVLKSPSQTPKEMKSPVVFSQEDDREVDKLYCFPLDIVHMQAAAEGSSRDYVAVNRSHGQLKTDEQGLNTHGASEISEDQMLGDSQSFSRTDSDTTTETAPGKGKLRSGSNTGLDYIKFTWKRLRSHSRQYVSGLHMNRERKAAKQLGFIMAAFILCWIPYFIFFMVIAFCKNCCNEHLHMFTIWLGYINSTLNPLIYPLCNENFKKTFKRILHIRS

Which inhibition at 1 µM (histamine receptor H1) does the source give for Cc1ccc2c(c1)c1c(n2C#Cc2ccncn2)CCN(C)C1 [Compound No. 499, 2,8-dimethyl-5-(pyrimidin-4-ylethynyl)-2,3,4,5-tetrahydro-1H-pyrido[4,3-b]indole] here?
Its inhibition at 1 µM is 26%.

What about the inhibition at 1 µM [1] of the same compound?
The inhibition at 1 µM was 18%.

Which inhibition at 1 µM (histamine receptor H1) does the source give for C/C(=C/n1c2c(c3cc(Cl)ccc31)CN(C)CC2)c1ccncc1 [compound 384, (Z)-8-chloro-2-methyl-5-(2-(pyridin-4-yl)prop-1-enyl)-2,3,4,5-tetrahydro-1H-pyrido[4,3-b]indole] here?
The inhibition at 1 µM was 66%.

What about the inhibition at 1 µM [1] of the same compound?
Its inhibition at 1 µM is 91%.

With C/C(=C\n1c2c(c3cc(Cl)ccc31)CN(C)CC2)c1cnc(C)cn1 [compound 385, (E)-8-chloro-2-methyl-5-(2-(5-methylpyrazin-2-yl)prop-1-enyl)-2,3,4,5-tetrahydro-1H-pyrido[4,3-b]indole] as the compound, how does the inhibition at 1 µM (histamine receptor H1) read?
The inhibition at 1 µM was 68%.

What about the inhibition at 1 µM [1] of the same compound?
Its inhibition at 1 µM is 51%.

With C/C(=C\n1c2c(c3cc(C)ccc31)CN(C)CC2)c1cnc(C)cn1 [compound 386, (E)-2,8-dimethyl-5-(2-(5-methylpyrazin-2-yl)prop-1-enyl)-2,3,4,5-tetrahydro-1H-pyrido[4,3-b]indole] as the compound, how does the inhibition at 1 µM (histamine receptor H1) read?
The inhibition at 1 µM was 8%.

What about the inhibition at 1 µM [1] of the same compound?
The inhibition at 1 µM was 25%.

C/C(=C\n1c2c(c3cc(C)ccc31)CN(C)CC2)c1ccsc1 [compound 387, (E)-2,8-dimethyl-5-(2-(thiophen-3-yl)prop-1-enyl)-2,3,4,5-tetrahydro-1H-pyrido[4,3-b]indole] was tested. Which inhibition at 1 µM (histamine receptor H1) did it give?
Its inhibition at 1 µM is 84%.

What about the inhibition at 1 µM [1] of the same compound?
The inhibition at 1 µM was 99%.

How did the inhibition at 1 µM (histamine receptor H1) turn out when C/C(=C\n1c2c(c3cc(Cl)ccc31)CN(C)CC2)c1ccsc1 [compound 388, (E)-8-chloro-2-methyl-5-(2-(thiophen-3-yl)prop-1-enyl)-2,3,4,5-tetrahydro-1H-pyrido[4,3-b]indole] was run?
Its inhibition at 1 µM is 100%.

What about the inhibition at 1 µM [1] of the same compound?
The inhibition at 1 µM was 99%.

C/C(=C\n1c2c(c3cc(C)ccc31)CN(C)[C@@H](C)C2)c1ccncc1 [compound 389, (S,E)-2,3,8-trimethyl-5-(2-(pyridin-4-yl)prop-1-enyl)-2,3,4,5-tetrahydro-1H-pyrido[4,3-b]indole] was tested. Which inhibition at 1 µM (histamine receptor H1) did it give?
The inhibition at 1 µM was 39%.

What about the inhibition at 1 µM [1] of the same compound?
The inhibition at 1 µM was 49%.

Which results are given for C/C(=C\n1c2c(c3cc(C)ccc31)CN(C)[C@H](C)C2)c1ccncc1 [compound 390, (R,E)-2,3,8-trimethyl-5-(2-(pyridin-4-yl)prop-1-enyl)-2,3,4,5-tetrahydro-1H-pyrido[4,3-b]indole]?
inhibition at 1 µM (histamine receptor H1): 49%; inhibition at 1 µM [1]: 97%

C/C(=C\n1c2c(c3cc(Cl)ccc31)CN(C)[C@@H](C)C2)c1ccncc1 [compound 391, (S,E)-8-chloro-2,3-dimethyl-5-(2-(pyridin-4-yl)prop-1-enyl)-2,3,4,5-tetrahydro-1H-pyrido[4,3-b]indole] was tested. Which inhibition at 1 µM (histamine receptor H1) did it give?
Its inhibition at 1 µM is 84%.

What about the inhibition at 1 µM [1] of the same compound?
The inhibition at 1 µM was 72%.

For C/C(=C\n1c2c(c3cc(Cl)ccc31)CN(C)[C@H](C)C2)c1ccncc1 [compound 392, (R,E)-8-chloro-2,3-dimethyl-5-(2-(pyridin-4-yl)prop-1-enyl)-2,3,4,5-tetrahydro-1H-pyrido[4,3-b]indole], which inhibition at 1 µM (histamine receptor H1) is on record?
Its inhibition at 1 µM is 84%.

What about the inhibition at 1 µM [1] of the same compound?
The inhibition at 1 µM was 99%.

What does the source list for C/C(=C\n1c2c(c3cc(Cl)ccc31)CN(C)CC2)c1cc(C)nc(C)c1 [compound 393, (E)-8-chloro-5-(2-(2,6-dimethylpyridin-4-yl)prop-1-enyl)-2-methyl-2,3,4,5-tetrahydro-1H-pyrido[4,3-b]indole]?
inhibition at 1 µM (histamine receptor H1): 69%; inhibition at 1 µM [1]: 99%

Which results are given for C/C(=C\n1c2c(c3cc(Cl)ccc31)CN(C)CC2)c1ccnc(C)c1 [compound 394, (E)-8-chloro-2-methyl-5-(2-(2-methylpyridin-4-yl)prop-1-enyl)-2,3,4,5-tetrahydro-1H-pyrido[4,3-b]indole]?
inhibition at 1 µM (histamine receptor H1): 75%; inhibition at 1 µM [1]: 99%

With C/C(=C\n1c2c(c3cc(Cl)ccc31)CN(CCCC(O)c1ccc(F)cc1)CC2)c1ccncc1 (stereo not drawn) [compound 395, (E)-4-(8-chloro-5-(2-(pyridin-4-yl)prop-1-enyl)-3,4-dihydro-1H-pyrido[4,3-b]indol-2(5H)-yl)-1-(4-fluorophenyl)butan-1-ol] as the compound, how does the inhibition at 1 µM (histamine receptor H1) read?
The inhibition at 1 µM was 102%.

And the inhibition at 1 µM [1]?
Its inhibition at 1 µM is 99%.

With C/C(=C\n1c2c(c3cc(Cl)ccc31)CN(C(=O)OCc1ccccc1)CC2)c1ccncc1 [compound 396, (E)-benzyl 8-chloro-5-(2-(pyridin-4-yl)prop-1-enyl)-3,4-dihydro-1H-pyrido[4,3-b]indole-2(5H)-carboxylate] as the compound, how does the inhibition at 1 µM (histamine receptor H1) read?
The inhibition at 1 µM was 15%.

And the inhibition at 1 µM [1]?
The inhibition at 1 µM was 7%.

Which inhibition at 1 µM (histamine receptor H1) does the source give for C/C(=C/n1c2c(c3cc(Cl)ccc31)CN(C)CC2)c1ccc(F)cc1 [compound 397, (Z)-8-chloro-5-(2-(4-fluorophenyl)prop-1-enyl)-2-methyl-2,3,4,5-tetrahydro-1H-pyrido[4,3-b]indole] here?
Its inhibition at 1 µM is 89%.

And the inhibition at 1 µM [1]?
Its inhibition at 1 µM is 80%.

What does the source list for C/C(=C\n1c2c(c3cc(Cl)ccc31)CN(CCCC1(c3ccc(F)cc3)OCCO1)CC2)c1ccncc1 [compound 398, (E)-8-chloro-2-(3-(2-(4-fluorophenyl)-1,3-dioxolan-2-yl)propyl)-5-(2-(pyridin-4-yl)prop-1-enyl)-2,3,4,5-tetrahydro-1H-pyrido[4,3-b]indole]?
inhibition at 1 µM (histamine receptor H1): 95%; inhibition at 1 µM [1]: 97%

With C/C(=C\n1c2c(c3cc(C)ccc31)CN(C)CC2)c1cc(C)nc(C)c1 [compound 399, (E)-5-(2-(2,6-dimethylpyridin-4-yl)prop-1-enyl)-2,8-dimethyl-2,3,4,5-tetrahydro-1H-pyrido[4,3-b]indole] as the compound, how does the inhibition at 1 µM (histamine receptor H1) read?
Its inhibition at 1 µM is 13%.

And the inhibition at 1 µM [1]?
Its inhibition at 1 µM is 73%.

Which inhibition at 1 µM (histamine receptor H1) does the source give for COCCCN1CCc2c(c3cc(C)ccc3n2/C=C(\C)c2ccncc2)C1 [compound 400, (E)-2-(3-methoxypropyl)-8-methyl-5-(2-(pyridin-4-yl)prop-1-enyl)-2,3,4,5-tetrahydro-1H-pyrido[4,3-b]indole] here?
Its inhibition at 1 µM is 22%.

What about the inhibition at 1 µM [1] of the same compound?
The inhibition at 1 µM was 94%.

With C/C(=C\n1c2c(c3cc(C)ccc31)CNCC2)c1ccncc1 [compound 401, (E)-8-methyl-5-(2-(pyridin-4-yl)prop-1-enyl)-2,3,4,5-tetrahydro-1H-pyrido[4,3-b]indole] as the compound, how does the inhibition at 1 µM (histamine receptor H1) read?
The inhibition at 1 µM was 8%.

What about the inhibition at 1 µM [1] of the same compound?
The inhibition at 1 µM was 57%.

What does the source list for C/C(=C\n1c2c(c3cc(Cl)ccc31)CNCC2)c1ccncc1 [compound 402, (E)-8-chloro-5-(2-(pyridin-4-yl)prop-1-enyl)-2,3,4,5-tetrahydro-1H-pyrido[4,3-b]indole]?
inhibition at 1 µM (histamine receptor H1): 15%; inhibition at 1 µM [1]: 87%

C/C(=C(/C)n1c2c(c3cc(C)ccc31)CN(C)CC2)c1ccncc1 [compound 403, (E)-2,8-dimethyl-5-(3-(pyridin-4-yl)but-2-en-2-yl)-2,3,4,5-tetrahydro-1H-pyrido[4,3-b]indole] was tested. Which inhibition at 1 µM (histamine receptor H1) did it give?
The inhibition at 1 µM was 37%.

And the inhibition at 1 µM [1]?
The inhibition at 1 µM was 66%.

With C=CCN1CCc2c(c3cc(C)ccc3n2/C=C(\C)c2ccncc2)C1 [compound 405, (E)-2-allyl-8-methyl-5-(2-(pyridin-4-yl)prop-1-enyl)-2,3,4,5-tetrahydro-1H-pyrido[4,3-b]indole] as the compound, how does the inhibition at 1 µM (histamine receptor H1) read?
Its inhibition at 1 µM is 67%.

And the inhibition at 1 µM [1]?
The inhibition at 1 µM was 88%.

What does the source list for C=CCN1CCc2c(c3cc(Cl)ccc3n2/C=C(\C)c2ccncc2)C1 [compound 406, (E)-2-allyl-8-chloro-5-(2-(pyridin-4-yl)prop-1-enyl)-2,3,4,5-tetrahydro-1H-pyrido[4,3-b]indole]?
inhibition at 1 µM (histamine receptor H1): 74%; inhibition at 1 µM [1]: 96%

CN1CCc2c(c3cc(Cl)ccc3n2C=C(c2ccccc2)c2ccccc2)C1 [compound 407, 8-chloro-5-(2,2-diphenylvinyl)-2-methyl-2,3,4,5-tetrahydro-1H-pyrido[4,3-b]indole] was tested. Which inhibition at 1 µM (histamine receptor H1) did it give?
Its inhibition at 1 µM is 10%.

What about the inhibition at 1 µM [1] of the same compound?
Its inhibition at 1 µM is 74%.

For C/C=C(/c1ccccc1)n1c2c(c3cc(C)ccc31)CN(C)CC2 [compound 408, (Z)-2,8-dimethyl-5-(1-phenylprop-1-enyl)-2,3,4,5-tetrahydro-1H-pyrido[4,3-b]indole], which inhibition at 1 µM (histamine receptor H1) is on record?
Its inhibition at 1 µM is 98%.

What about the inhibition at 1 µM [1] of the same compound?
The inhibition at 1 µM was 44%.

How did the inhibition at 1 µM (histamine receptor H1) turn out when Cc1ccc2c(c1)c1c(n2C=C(c2ccccc2)c2ccccc2)CCN(C)C1 [compound 409, 5-(2,2-diphenylvinyl)-2,8-dimethyl-2,3,4,5-tetrahydro-1H-pyrido[4,3-b]indole] was run?
Its inhibition at 1 µM is 18%.

And the inhibition at 1 µM [1]?
The inhibition at 1 µM was 54%.

C/C(=C\n1c2c(c3cc(C)ccc31)CN(C=O)CC2)c1ccncc1 [compound 411, (E)-8-methyl-5-(2-(pyridin-4-yl)prop-1-enyl)-3,4-dihydro-1H-pyrido[4,3-b]indole-2(5H)-carbaldehyde] was tested. Which inhibition at 1 µM (histamine receptor H1) did it give?
The inhibition at 1 µM was 0%.

What about the inhibition at 1 µM [1] of the same compound?
The inhibition at 1 µM was 55%.

Which inhibition at 1 µM (histamine receptor H1) does the source give for C/C(=C\n1c2c(c3cc(C)ccc31)CN(CCc1ccccc1)CC2)c1ccncc1 [compound 412, (E)-8-methyl-2-phenethyl-5-(2-(pyridin-4-yl)prop-1-enyl)-2,3,4,5-tetrahydro-1H-pyrido[4,3-b]indole] here?
The inhibition at 1 µM was 27%.

What about the inhibition at 1 µM [1] of the same compound?
Its inhibition at 1 µM is 94%.

Which inhibition at 1 µM (histamine receptor H1) does the source give for CO/C(=C\n1c2c(c3cc(C)ccc31)CN(C)CC2)c1ccncc1 [compound 413, (Z)-5-(2-methoxy-2-(pyridin-4-yl)vinyl)-2,8-dimethyl-2,3,4,5-tetrahydro-1H-pyrido[4,3-b]indole] here?
Its inhibition at 1 µM is 16%.

What about the inhibition at 1 µM [1] of the same compound?
Its inhibition at 1 µM is 60%.

How did the inhibition at 1 µM (histamine receptor H1) turn out when C/C(=C\n1c2c(c3cc(Cl)ccc31)CN(CCC(C)(C)O)CC2)c1ccc(F)cc1 [compound 414, (E)-4-(8-chloro-5-(2-(4-fluorophenyl)prop-1-enyl)-3,4-dihydro-1H-pyrido[4,3-b]indol-2(5H)-yl)-2-methylbutan-2-ol] was run?
Its inhibition at 1 µM is 61%.

What about the inhibition at 1 µM [1] of the same compound?
Its inhibition at 1 µM is 100%.
